Residue numbers refer to the chain shown, from its start. In names and notes the source's numbering stands. Where no end group is shown, it is not given here.
Columns and labels:
[1] = biological target: T1, SPOP–MATH (residues 28–166) (Homo sapiens, UniProt O43791); assay: Competition fluorescence anisotropy, displacement of f-Puc from SPOP–MATH; type: binding; conditions: competition FA; 40 nM f-Puc, 6 μM SPOP–MATH; 50 mM sodium phosphate pH 6.5, 50 mM NaCl, 5 mM DTT, 1% BSA, 0.01% Triton X-100; complete competitive binding model; ± standard deviation of three independent replicates (Table S4)
T1 construct: glutathione S-transferase (GST) (N, cleaved yes); 6X His (N, cleaved yes); made in house; host or cells: E. coli BL-21(DE3)
Description: An Escherichia coli codon-optimized DNA sequence encoding amino acids 205 to 283 of the human Pdx1 sequence (Pdx1-C) in the multiple cloning site of pET49b(+) was purchased from GeneArt (Thermo Fisher). The pET49b(+) backbone encodes for N-terminal glutathione S-transferase and 6X His tags, followed by a 3C protease recognition motif. In all experiments described herein, a mutant containing an exogenous tryptophan at the N terminus of the human Pdx1-C sequence was used for the purposes of quantitation. Mutations in Pdx1-C were generated by Q5 site-directed mutagenesis (New England Biolabs) with primers designed on NEBbasechanger.com according to the manufacturer protocol. Similarly, an E. coli–optimized DNA sequence encoding residues 28 to 166 of human SPOP (SPOP–MATH) was purchased in pET49b(+) from GeneArt. […] A plasmid encoding His–SUMO–SPOP human residues 28 to 359 harboring a tobacco etch virus protease recognition site directly N terminal to the beginning of the native SPOP protein sequence was generated previously ([21]).
All FA experiments were conducted in 50 mM sodium phosphate, pH 6.5, 50 mM sodium chloride, 5 mM DTT, 1% BSA, and 0.01% Triton X-100. In all experiments, the source of fluorescence signal was f-Puc purchased from GenScript, at a final concentration of 40 nM. For direct FA measurements, SPOP–MATH or SPOP28–359 of concentrations between 0.001 and 300 μM was added to wells of 96- or 384-well plates containing f-Puc and buffer. For competition-mode experiments, serial dilutions of each competitor (Pdx1 peptide or recombinant protein) were prepared ranging from ∼0.01 μM to ∼2 mM (concentration range varied based on peptide solubility) in wells of 96- or 384-well plates containing 40 nM f-Puc and 6 μM SPOP–MATH or SPOP28–359. The fluorescence polarization of each well was measured (from which FA was calculated) using either a TECAN Infinite M1000 Pro or BioTek Synergy 4 fluorometer. All experiments were performed with at least three technical replicates. FA data points were fit to a complete competitive binding model ([23]) to determine dissociation constants using in-house Python scripts (see Quantification and statistical analysis).
All titrations were performed in triplicate for rigor. Direct FA titrations were performed to determine the dissociation constants of the fluorescent probe toward SPOP constructs. Direct titration data were fit according to equation 6 in ([54]). Competition mode titration data were fit according to the fitting function in ([23]). Average dissociation constants and standard error from the mean for all constructs from competition experiments may be found in Table S4. The python scripts used in plotting and fitting may be found at https://github.com/idpemery/spop-pdx1.

V5-SPOP in HeLa cells = assay: Immunofluorescence: V5-SPOP localization on coexpression of GFP–Pdx1 variants; type: cell-based; conditions: coexpressed with V5-SPOP, 24 h after transfection, three biological replicates
Method: (§1) HeLa cells were cultured under sterile conditions with Dulbecco’s modified Eagle’s medium (DMEM) (Gibco) supplemented with 10% fetal bovine serum and antibiotics/antimycotics (Gibco) (see Table S5 for key reagents and resources). T-REx-293 cells (cat. no. R710-07) were obtained from Invitrogen. Cells were grown on DMEM supplemented with 10% fetal bovine serum (Gibco), GlutaMax (Gibco), and Penicillin-Streptomycin (Gibco) and kept under selection by 5 μg/ml blasticidin. All cells were grown at 37 °C under 5% CO2 and were mycoplasma free at the time the experiments were performed.
(§2) A plasmid encoding full-length human Pdx1 (amino acids 1-283) in pcDNA3.1 with a C-terminal GFP tag was purchased from GenScript. Full-length mouse SPOP (identical to the human sequence) with a V5 epitope tag in pcDNA3 was generated previously ([21]). The coding sequence for full-length mouse SPOP was inserted into pcDNA4/TO/myc (Invitrogen) for the T-REx system. pcDNA3-myc-CUL3 (cat no. 19893) and pcDNA–HA2–ROC1 (Rbx1) (cat no. 19897) were obtained from Addgene. pcDNA3 containing His-ubiquitin was a gift from Wenyi Wei.
For immunofluorescence experiments, 0.5 × 10^6 cells were seeded on borosilicate glass coverslips in 6-well plates. After 24 h, cells were transfected with 400 ng of each plasmid using the Qiagen Effectene transfection reagent according to the manufacturer protocol. 24 h after transfection, the cells were treated with 4% paraformaldehyde in PBS for 30 min at RT. Cells were permeabilized with 0.1% Triton X-100 in PBS (PBST) for 5 min at 21 °C, followed by blocking in 0.5% BSA in PBST for 1 h at 21 °C. Signal from GFP-tagged proteins was observed directly. Cells were stained in primary antibodies diluted in 0.5% BSA in PBST overnight at 4 °C with mouse anti-SC-35 (1:300, ab11826; Abcam) and chicken anti-V5 (1:300, NB600-379; Novus Biologicals). Cells were incubated with secondary antibodies for 2 h at 21 °C. The secondary antibodies used were goat anti-mouse Alexa Fluor 647 (1:250, A-21235; Thermo Fisher) and goat anti-chicken Alexa Fluor 555 (1:250, A-21437; Thermo Fisher). Cells on coverslips were treated with 300 nM 4′,6-diamidino-2-phenylindole (DAPI) for 5 min at 21 °C. Coverslips were mounted on glass slides with ProLong Diamond mounting reagent (Thermo Fisher) and cured before imaging on a Zeiss LSM 880 Upright microscope. All images were analyzed and prepared in Fiji ([53]).
All immunofluorescence data were averaged over three biological replicates. Cells not expressing both Pdx1 and SPOP were excluded from sampling. Raw images were collected in the Zeiss Zen software and then exported for viewing and analysis in Fiji. Nuclei of individual cells were designated manually in Fiji using the DAPI channel as a guide. The cells were binned based on whether SPOP was localized to nuclear speckles (puncta); cells with both diffuse and punctate SPOP signal were binned as “speckled.” The grayscale signal intensity of the green channel (Pdx1–GFP) was averaged over the DAPI-designated nuclear area. Next, the raw GFP intensity data points (one data point per cell analyzed) were plotted to generate a violin plot distribution. The average, minimum, and maximum values are shown by horizontal lines on the plot. Individual data points are also shown for rigor. […] All plotting and statistical tests were performed using in-house python scripts that can be found at https://github.com/idpemery/spop-pdx1.

[2] = test system: SPOP-dependent turnover in T-REx-293 cells; assay: SPOP-dependent Pdx1 stability (Western blot); type: cell-based; conditions: no MG132, harvested 28 h after transfection, Western blot (Fig. S3D)
Method: In a similar experiment, the cells were not treated with a proteasome inhibitor to observe the SPOP-dependent stability of each Pdx1 variant.
(§3) T-REx-293 cells (Invitrogen) were seeded at a density of 0.8 × 10^6 per well in 6-well plates (tissue culture–treated plates (cat. no 3516, Corning)). After 24 h, cells were transfected with plasmids encoding Pdx1–GFP, SPOP–myc, His–ubiquitin, HA–Rbx1, and myc–CUL3 (as indicated) using the Qiagen Effectene transfection reagent. 24 h after transfection, the cells were treated with either dimethyl sulfoxide or 20 μM MG132 for 4 h before being harvested. Cells were lysed in buffer A (6 M guanidine HCl, 100 mM sodium phosphate, pH 8.0, and 10 mM imidazole). The lysates were sonicated, cleared, and incubated with Ni-NTA Agarose (Qiagen) for 3 h at RT, followed by 16 h at 4 °C. The beads were washed twice with buffer A and twice with a buffer composed of 1:3 buffer A:buffer T1 (buffer T1: 25 mM Tris HCl, pH 8.0, and 20 mM imidazole). The beads were finally transferred to buffer T1 and then boiled in the SDS-PAGE loading buffer containing 300 mM imidazole. Pdx1 stability assays were performed as described above, except that the cells were not treated with MG132. Cells expressing Pdx1–GFP or a variant were harvested 28 h after transfection, resuspended in 2x SDS-loading dye, and boiled for 5 min before SDS-PAGE analysis.
(§4) All proteins were resolved by SDS-PAGE. Separated proteins were analyzed by immunoblotting using either the ECL or the ECL Select Western blotting detection reagents (Amersham). The antibodies used were mouse anti-Pdx1 used at 1:500 for pulldown or 1:2000 for inputs (clone 26771, MAB2419, R&D Systems), mouse anti-myc (1:250, clone 9E10, Santa Cruz Biotechnology), and rabbit anti-GAPDH (1:8000, clone EPR1689, Abcam). horseradish peroxidase-conjugated secondary antibodies were sourced from Jackson ImmunoResearch Laboratories and used at 1:20,000 dilution (goat anti-rabbit IgG, 111-035-003 and goat anti-mouse, 115-035-003).

[3] = test system: SPOP-mediated ubiquitination in T-REx-293 cells; assay: SPOP-mediated ubiquitination of Pdx1 variants (Ni-NTA pulldown, immunoblot); type: cell-based; conditions: SPOP–myc and GFP–Pdx1 coexpressed 24 h, then 20 μM MG132 or DMSO for 4 h, immunoblot (Fig. 6C)
Method: We next sought to determine whether SPOP-driven ubiquitination of Pdx1 could occur outside of previously implicated droplets. Given the SPOP relocalization phenotype that we observe in cells that express SPOP and Pdx1, we hypothesized that the ubiquitination activity was occurring in the diffuse nucleoplasm and that optimal activity requires both SB sites. To test this hypothesis, we performed in cell ubiquitination assays with GFP–Pdx1 variants. SPOP–myc and GFP–Pdx1 were coexpressed for 24 h in T-REx-293 cells, followed by a 4-h treatment with 20 μM MG132 or dimethyl sulfoxide. Proteins modified with His-ubiquitin were enriched by pulldown on nickel-nitrilotriacetic acid (Ni-NTA) resin.
as §2
Ubiquitination and Western blots
as §3, §4

HeLa cells = assay: Immunofluorescence: subcellular localization / phase separation of the protein itself; type: cell-based; conditions: SC-35 nuclear speckle marker
Method: as §1, §2
For immunofluorescence experiments, 0.5 × 10^6 cells were seeded on borosilicate glass coverslips in 6-well plates. After 24 h, cells were transfected with 400 ng of each plasmid using the Qiagen Effectene transfection reagent according to the manufacturer protocol. 24 h after transfection, the cells were treated with 4% paraformaldehyde in PBS for 30 min at RT. Cells were permeabilized with 0.1% Triton X-100 in PBS (PBST) for 5 min at 21 °C, followed by blocking in 0.5% BSA in PBST for 1 h at 21 °C. Signal from GFP-tagged proteins was observed directly. […] All images were analyzed and prepared in Fiji ([53]).
All immunofluorescence data were averaged over three biological replicates. […] Next, the raw GFP intensity data points (one data point per cell analyzed) were plotted to generate a violin plot distribution. […]

[4] = biological target: T2, SPOP-MATH (human SPOP residues 28-166) (human, UniProt O43791 28-166); assay: fluorescence polarisation; competition fluorescence anisotropy: competitor (~0.01 μM to ~2 mM) displaces 40 nM f-Puc from 6 μM SPOP-MATH or SPOP28-359; complete competitive binding fit; 50 mM sodium phosphate pH 6.5, 50 mM NaCl, 5 mM DTT, 1% BSA, 0.01% Triton X-100; conditions: both partners purified
T2 construct: N-terminal Gly-Pro-Gly cloning artefact left after 3C protease; speckle-type POZ protein (SPOP), human, MATH domain, residues 28-166; uniformly 15N-labelled for the NMR experiments; also called 15N-SPOP-MATH; source: E. coli BL-21(DE3), purified (Ni-NTA, 3C protease, second Ni-NTA, Sephacryl S100); not shown: GST, N-terminal, cleaved; His6, N-terminal, cleaved
T2 sequence (O43791 other isoform, or with tags, fused parts or gaps): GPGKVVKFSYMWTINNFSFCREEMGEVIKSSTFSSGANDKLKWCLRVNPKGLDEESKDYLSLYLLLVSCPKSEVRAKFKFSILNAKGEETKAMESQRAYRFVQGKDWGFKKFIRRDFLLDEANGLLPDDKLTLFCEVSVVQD

In the case of “Ac-GSSSEADEMAKALEAELNDLM [Mock (Fcp1), mock peptide, residues 941-961, negative control, reference compound]”, the “KD (binding to SPOP-MATH)” value [1] is reported as “no binding”.

Ac-LSASPQPSSVAPRRPQEPR [Pdx1–SBM2] gave a Kd [1] greater than 600 µM.

In the case of “GFP–Pdx1–ΔSBM1: GFP–Pdx1 with deletion of the higher-affinity SBM1 (residues 224–236)”, the “SPOP relocalization from nuclear speckles by Pdx1 variant” value (V5-SPOP in HeLa cells) is reported as “all cells, regardless of GFP–Pdx1–ΔSBM1 levels, contain punctate V5-SPOP”, the “SPOP-dependent Pdx1 stability” value [2] is reported as “more stable relative to the WT protein” and the “ubiquitination of Pdx1 variant” value [3] is reported as “impedes ubiquitination, as shown by no shift from the unmodified band”. For the same molecule, the “ubiquitination of Pdx1 variant” value ([3]; listed as Pdx1 lacking SBM1) was “not observably ubiquitinated”.

B1: V5-SPOP: full-length mouse SPOP (identical to the human sequence) with a V5 epitope tag (protein, UniProt Q6ZWS8 1-374, looked up)
chain: MSRVPSPPPPAEMSSGPVAESWCYTQIKVVKFSYMWTINNFSFCREEMGEVIKSSTFSSGANDKLKWCLRVNPKGLDEESKDYLSLYLLLVSCPKSEVRAKFKFSILNAKGEETKAMESQRAYRFVQGKDWGFKKFIRRDFLLDEANGLLPDDKLTLFCEVSVVQDSVNISGQNTMNMVKVPECRLADELGGLWENSRFTDCCLCVAGQEFQAHKAILAARSPVFSAMFEHEMEESKKNRVEINDVEPEVFKEMMCFIYTGKAPNLDKMADDLLAAADKYALERLKVMCEDALCSNLSVENAAEILILADLHSADQLKTQAVDFINYHASDVLETSGWKSMVVSHPHLVAEAYRSLASAQCPFLGPPRKRLKQS
modifications: full-length V5 tag
In the case of B1, the “V5-SPOP localization when expressed alone” value (HeLa cells) is reported as “localizes to nuclear speckles”.

B2: W131G: substrate binding-impaired SPOP mutant (protein, UniProt O43791 1-374, looked up, variant W131G)
Speckle-type POZ protein: B1 chain with W131G
modifications: V5 tag
With B2 the “ubiquitination of Pdx1 variant” value [3] was “lack of any shift of the Pdx1 band”.

B3: Pdx1-SBM2 peptide (human Pdx1 residues 265-283) (peptide)
peptide: Ac-LSASPQPSSVAPRRPQEPR
notes: pancreatic and duodenal homeobox 1 (Pdx1), human, residues 265-283; also called Pdx1 265-283; source: synthetic peptide (Tufts University Core Facility, HPLC purified)
With B3 the Kd [4] was 630 µM.

Source: PMC8138767, “Intrinsically disordered substrates dictate SPOP subnuclear localization and ubiquitination activity” (The Journal of Biological Chemistry, 2021)
